Source: patent publication US20130053435A1, “Methods of Treating Alcohol Intoxication, Alcohol Use Disorders and Alcohol Abuse Which Comprises the Administration of Dihydromyricetin” (priority 2011, published 2013)

Test system: T1, GABAARs
T1 construct: rows headed: effect on GABAAR-currents; effect on GABAAR-currents; other: zolpidem 0.3 μM, DGCs of EtOH group
Test: Whole-cell patch-clamp, DGCs in hippocampal slices 48 hr after in vivo treatment
Assay type: cell-based, rat
Details: zolpidem 0.3 μM
Method: Transverse slices (400 μm) of dorsal hippocampus were obtained with a Vibratome (VT 100, Technical Products International, St. Louis, Mo.) and standard techniques known in the art. Slices were continuously perfused with artificial cerebrospinal fluid (ACSF). See Liang, J., et al. (2007) J Neurosci 27:12367-12377.
Whole-cell patch-clamp recordings were obtained at 34±0.5° C. from cells located in the DG layer at a holding potential of −70 mV, during perfusion with artificial cerebrospinal fluid (ACSF, 125 mM NaCl, 2.5 mM KCl, 2 mM CaCl2, 2 mM MgCl2, 26 mM NaHCO3, and 10 mM D-glucose). The ACSF was continuously bubbled with 95% O2-5% CO2 to ensure adequate oxygenation of slices and a pH of 7.4. Patch electrodes were pulled from thin-wall borosilicate glass pipettes with resistances of 7.5-9 MΩ and were filled with pipette solution (i.e. 137 mM CsCl, 2 mM MgCl2, 1 mM CaCl2, 11 mM EGTA, 10 mM HEPES and 3 mM ATP, pH adjusted to 7.30 with CsOH). Signals were recorded in voltage-clamp mode with a […] amplifier (Molecular Devices, Sunnyvale, Calif.). Whole cell access resistances were in the range of <25 MΩ before electrical compensation by about 70%. During voltage-clamp recordings, access resistance was monitored by measuring the size of the capacitative transient in response to a 5 mV step command and the data were abandoned if changes >20% were encountered. At least 10 min was allowed for equilibration of the pipette solution with the intracellular milieu before commencing mIPSC recordings. Intracellular signal was low-pass filtered at 3 kHz and data were acquired with Digidata 1440A and software CLAMPEX 10 (Molecular Devices) at a sampling frequency of 20 kHz.
Pharmacologically-isolated GABAAR-mediated mIPSCs were recorded as previously described (Liang (2007) and Shen (2011)). […] Data were analyzed using the Clampfit (Version 9.0, Molecular Devices) and the MiniAnalysis Program (versions 6.0.7, Synaptosoft, Decatur, Ga.).
The MiniAnalysis program (Synaptosoft, Decatur, Ga.) was used to analyze mIPSCs. Itonic is the averaged baseline currents of a given recording period. Itonic amplitude was calculated as the difference between the holding currents measured before and after picrotoxin (100 μM) or bicuculline (10 μM). See Wei, W., et al. (2004) J Neurosci 24, 8379-8382; Liang (2007); and Shen (2011). Briefly, the recordings were low-pass filtered off-line (Clampfit software) at 2 kHz. The mIPSCs were detected (Mini Analysis Program, version 6.0.7) with threshold criteria of 8 pA amplitude and 20 pA*ms charge transfer. The frequency of mIPSCs was determined from all automatically detected events in a given 100 s recording period. For kinetic analysis, only single event mIPSCs with a stable baseline, sharp rising phase (10 to 90% rise time), and exponential decay were chosen during visual inspection of the recording trace. Double and multiple peak mIPSCs were excluded. At least 100 individual mIPSC events were recorded under each experimental condition. The mIPSC kinetics was obtained from analysis of the averaged chosen single events aligned with half rise time in each cell. Decay time constants were obtained by fitting a double exponential to the falling phase of the averaged mIPSCs. Itonic magnitudes were obtained from the averaged baseline current of a given recording period. Itonic amplitude was calculated as the difference between the holding currents measured before and after the application of picrotoxin (50 μM) or bicuculline (10 μM). See Liang J et al (2007); Shen (2011); Hamann (2002); and Mangan P S, et al. (2005) Mol Pharmacol 67(3):775-788. The investigator performing the recordings and mIPSC analysis was blind to the treatment (vehicle, EtOH, E+D, or D) that the rats received.
After 48 hr withdrawal, whole-cell GABAAR-mediated currents were recorded on DGCs in hippocampal slices. In the vehicle group, bath application of EtOH (60 mM) enhanced Itonic from 28.8±3.1 to 62.1±3.3 pA (FIG. 13, panels A, G). […]

Cc1ccc(-c2nc3ccc(C)cn3c2CC(=O)N(C)C)cc1 [Zolpidem, zolpidem, reference compound]
effect on GABAAR-currents (DGCs of DHM group as in vehicle group): potentiation | effect on GABAAR-currents (DGCs of EtOH group): did not affect GABAAR-currents
